Literature values in patent US6488942B1, “Disinfecting agent” (DDG Dental Devices GmbH, priority 1997, dated 2002).

solubility in water: soluble in water
Structure (SMILES): CC(=O)O.CC(=O)O.NC(=N\CCCCCC/N=C(N)/N=C(\N)Nc1ccc(Cl)cc1)/N=C(\N)Nc1ccc(Cl)cc1 [diacetate, Chlorhexidine diacetate]
